For the experiment, the target named is T1, human CRTH2 (Homo sapiens, UniProt Q9Y5Y4).
T1 construct: expressed in transfected cells; host or cells: L1.2 cells, pEAK expression vector, puromycin-selected
T1 sequence (Q9Y5Y4 1-395): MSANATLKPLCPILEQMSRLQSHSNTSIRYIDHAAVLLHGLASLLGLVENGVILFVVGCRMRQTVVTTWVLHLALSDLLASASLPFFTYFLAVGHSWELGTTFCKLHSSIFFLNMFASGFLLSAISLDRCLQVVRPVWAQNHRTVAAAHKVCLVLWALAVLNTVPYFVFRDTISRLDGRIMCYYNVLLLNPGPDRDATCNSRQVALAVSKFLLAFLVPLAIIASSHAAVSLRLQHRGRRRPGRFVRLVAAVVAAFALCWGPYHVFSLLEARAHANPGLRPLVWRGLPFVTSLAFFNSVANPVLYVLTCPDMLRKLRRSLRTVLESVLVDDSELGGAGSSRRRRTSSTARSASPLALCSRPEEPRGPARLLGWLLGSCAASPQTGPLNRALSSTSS
The experiment in a line: Measurement of Ca2+ mobilization in the human CRTH2-transfected L1.2 cell line (Assay 1). The experiment is classed as cell-based. The conditions noted are these: PGD2-induced Ca2+ mobilization in CRTH2-transfected L1.2 cells; compounds as yielded by solid phase synthesis, purity about 40 to 90%; read-out: Activity class. On the procedure: Human CRTH2 cDNA was amplified from human eosinophil cDNA with gene specific primers containing restriction sites for cloning into pEAK vector (Edge Bio Systems). The human CRTH2 cDNA was cloned into the mammalian expression vector pEAK. This expression plasmid (40 μg) was transfected into L1.2 cells, at a cell density of 1×10^7 cells/500 μl, by using electroporation apparatus (Gene Pulser II, BioRad) at 250V/1,000 μF. One day after the transfection, puromycin (1 μg/ml, Sigma) was added into the cell culture plates. Two weeks after the transfection, grown cells were picked up for further growth.
[Measurement of Ca^2+ Mobilization in the Human CRTH2-Transfected L1.2 Cell Line] (Assay 1)
Ca^2+ loading buffer was prepared by mixing 5 μl of Fluo-3AM (2 mM in DMSO, final 1 μM, Molecular Probes) and 10 μl of pluronic F-127 (Molecular Probes) and diluting the resulting mixture in 10 ml of Ca^2+ assay buffer (20 mM HEPES pH 7.6, 0.1% BSA, 1 mM probenecid, Hanks' solution). The CRTH2 transfected cells which were prepared in Example 1 were washed with PBS, resuspended in Ca^2+ loading buffer at 1×10^7 cells/ml, and incubated for 60 min at room temperature. After incubation, cells were washed and resuspended in Ca^2+ assay buffer, then dispensed into transparent-bottom 96-well plates (#3631, Costar) at 2×10^5 cells/well. Cells were incubated with various concentrations of test compound for 5 minutes at room temperature. The emitted 480 nm fluorescence was measured on FDSS6000, a Ca^2+-measurement apparatus (Hamamatsu Photonics, Hamamatsu, Japan).
Assay results in Assay 1 are shown in Examples and tables of the Examples below. The data corresponds to the compounds as yielded by solid phase synthesis and thus to levels of purity of about 40 to 90%. For practical reasons, the compounds are grouped in four classes of activity as follows: IC50=A(< or =)10 nM<B(< or =)100 nM<C(< or =)500 nM<D

As to `CN(C)c1nc(Cc2ccc(NC(=O)c3ccc(S(N)(=O)=O)cc3)cc2)nc(Cl)c1CC(=O)O` [Example 1-40], the IC50 is 100 to 500 nM.

With `CN(CC(=O)NC1CCCC1)c1nc(Cc2ccc(NC(=O)c3ccc4ccccc4c3)cc2)ncc1CC(=O)O` [Example 2-2], the IC50 was less than 10 nM.

For `CN(CC(=O)N1CCCC1)c1nc(Cc2ccc(NC(=O)c3ccc4ccccc4c3)cc2)ncc1CC(=O)O` [Example 2-3], the IC50 is less than 10 nM.

Take `CN(CC(=O)NC1CCCC1)c1nc(Cc2ccc(NC(=O)c3ccccc3)cc2)ncc1CC(=O)O` [Example 2-4]: the IC50 was in the range of 10 to 100 nM.

As to `CN(CC(=O)NC1CCCC1)c1nc(Cc2ccc(NC(=O)/C=C/c3ccccc3)cc2)ncc1CC(=O)O` [Example 2-5], the IC50 was less than 10 nM.

As for `CN(C)c1nc(Cc2ccc(NC(=O)c3ccc(Cl)cc3)cc2)ncc1CC(=O)O` [Example 2-6], the IC50 was less than 10 nM.

Regarding `COc1cccc(C(=O)Nc2ccc(Cc3ncc(CC(=O)O)c(N(C)C)n3)cc2)c1` [Example 2-14], the IC50 is 10 to 100 nM.

For the compound `CN(C)c1nc(Cc2ccc(NC(=O)c3ccc(Br)cc3)cc2)ncc1CC(=O)O` [Example 2-16], the IC50 is less than 10 nM.

`CN(C)c1nc(Cc2ccc(NC(=O)/C=C/c3ccc(C(F)(F)F)cc3)cc2)ncc1CC(=O)O` [Example 2-17]: the IC50 was less than 10 nM.

In the case of `CC(c1ccc(NC(=O)c2ccc3ccccc3c2)cc1)c1ncc(CC(=O)O)c(N(C)C)n1` (stereo not drawn) [Example 2-18], the IC50 was less than 10 nM.

In the case of `CN(C)c1nc(Cc2ccc(NC(=O)c3ccc(OC(F)(F)F)cc3)cc2)ncc1CC(=O)O` [Example 2-19], the IC50 is less than 10 nM.

In the case of `CN(C)c1nc(Cc2ccc(NC(=O)c3ccc(F)cc3)cc2)ncc1CC(=O)O` [Example 2-20], the IC50 was 10 to 100 nM.

As for `O=C(O)Cc1c(Cl)nc(Cc2ccc(NC(=O)c3ccc4ccccc4c3)cc2)nc1N1CCCC1` [Example 3-1, {4-Chloro-2-[4-(2-naphthoylamino)benzyl]-6-pyrrolidin-1-ylpyrimidin-5-yl}acetic acid], the IC50 is less than 10 nM.

Consider `CN(CC(=O)O)c1nc(Cc2ccc(NC(=O)c3ccc4ccccc4c3)cc2)nc(Cl)c1CC(=O)O` [Example 3-2], for which the IC50 lay within 10 to 100 nM.

For the compound `CN(c1nc(Cc2ccc(NC(=O)c3ccc4ccccc4c3)cc2)nc(Cl)c1CC(=O)O)C1CCCCC1` [Example 3-3], the IC50 is less than 10 nM.

Turning to `CC(C)N(C)c1nc(Cc2ccc(NC(=O)c3ccc4ccccc4c3)cc2)nc(Cl)c1CC(=O)O` [Example 3-4], the IC50 was less than 10 nM.

Regarding `O=C(O)Cc1c(Cl)nc(Cc2ccc(NC(=O)c3ccc4ccccc4c3)cc2)nc1N1CCOCC1` [Example 3-6], the IC50 was less than 10 nM.

Take `O=C(O)Cc1c(Cl)nc(Cc2ccc(NC(=O)c3ccc4ccccc4c3)cc2)nc1N1CCCCC1` [Example 3-7]: the IC50 is less than 10 nM.

Take `CN(C)c1nc(Cc2ccc(NC(=O)c3ccc4cc[nH]c4c3)cc2)nc(Cl)c1CC(=O)O` [Example 3-8]: the IC50 is less than 10 nM.

Regarding `COc1nc(Cc2ccc(NC(=O)c3ccc4ccccc4c3)cc2)nc(Cl)c1CC(=O)O` [Example 3-9], the IC50 is less than 10 nM.

For `O=C(O)Cc1c(Cl)nc(Cc2ccc(NC(=O)c3ccc4ccccc4c3)cc2)nc1N1CC=CC1` [Example 3-10], the IC50 was less than 10 nM.

Turning to `CCN(CC)c1nc(Cc2ccc(NC(=O)c3ccc4ccccc4c3)cc2)nc(Cl)c1CC(=O)O` [Example 3-11], the IC50 lay within 10 to 100 nM.

In the case of `CCN(C)c1nc(Cc2ccc(NC(=O)c3ccc4ccccc4c3)cc2)nc(Cl)c1CC(=O)O` [Example 3-12], the IC50 is less than 10 nM.

For the compound `O=C(O)Cc1c(Cl)nc(Cc2ccc(NC(=O)c3ccc4ccccc4c3)cc2)nc1N1CCC(O)C1` (stereo not drawn) [Example 3-13], the IC50 is less than 10 nM.

On to `O=C(O)Cc1c(Cl)nc(Cc2ccc(NC(=O)c3ccc4ccccc4c3)cc2)nc1N1CCC[C@H]1C(=O)O` [Example 3-14], for which the IC50 is 10 to 100 nM.

As for `CSc1ccc(C(=O)Nc2ccc(Cc3nc(Cl)c(CC(=O)O)c(N4CCCC4)n3)cc2)cc1` [Example 3-15], the IC50 is less than 10 nM.

For the compound `COc1ccc(C(=O)Nc2ccc(Cc3nc(Cl)c(CC(=O)O)c(N4CCCC4)n3)cc2)cc1Cl` [Example 3-16], the IC50 was less than 10 nM.

Turning to `CN(CC(=O)NC1CCCC1)c1nc(Cc2ccc(NC(=O)Nc3ccccc3)cc2)nc(Cl)c1CC(=O)O` [Example 4-1, {2-{4-[(Anilinocarbonyl)amino]benzyl}-4-chloro-6-[[2-(cyclopentylamino)-2-oxoethyl](methyl)amino]pyrimidin-5-yl}acetatic acid], the IC50 is 10 to 100 nM.

Turning to `CN(CC(=O)NC1CCCC1)c1nc(Cc2ccc(NC(=O)NCc3ccccc3)cc2)nc(Cl)c1CC(=O)O` [Example 4-2], the IC50 lay in the range of 10 to 100 nM.

As for `CN(CC(=O)NC1CCCC1)c1nc(Cc2ccc(NC(=O)NCCc3ccccc3)cc2)nc(Cl)c1CC(=O)O` [Example 4-3], the IC50 lay within 10 to 100 nM.

For the compound `CN(CC(=O)NC1CCCC1)c1nc(Cc2ccc(NC(=O)Nc3ccc4ccccc4c3)cc2)nc(Cl)c1CC(=O)O` [Example 4-4], the IC50 fell in the range of 10 to 100 nM.

On to `CN(C)c1nc(Cc2ccc(NC(=O)NCc3ccccc3)cc2)ncc1CC(=O)O` [Example 4-5], for which the IC50 lay within 10 to 100 nM.

Regarding `CN(Cc1ccccc1)C(=O)Nc1ccc(Cc2ncc(CC(=O)O)c(N(C)C)n2)cc1` [Example 4-6], the IC50 lay in the range of 100 to 500 nM.

On to `CN(CC(=O)NC1CCCC1)c1nc(Cc2ccc(NCC3CCCCC3)cc2)nc(Cl)c1CC(=O)O` [Example 5-1, {4-Chloro-2-{4-[(cyclohexylmethyl)amino]benzyl}-6-[[2-(cyclopentylamino)-2-oxoethyl](methyl)amino]pyrimidin-5-yl}acetic add], for which the IC50 was greater than 500 nM.

As to `CN(CC(=O)NC1CCCC1)c1nc(Cc2ccc(NC/C=C/c3ccccc3)cc2)nc(Cl)c1CC(=O)O` [Example 5-4], the IC50 lay within 100 to 500 nM.

Turning to `CCCCCCCNc1ccc(Cc2nc(Cl)c(CC(=O)O)c(N(C)CC(=O)NC3CCCC3)n2)cc1` [Example 5-5], the IC50 is greater than 500 nM.

As for `CN(C)c1nc(Cc2ccc(N(C)C(=O)c3ccc(Cl)cc3)cc2)nc(Cl)c1CC(=O)O` [Example 6-1, [4-Chloro-2-{4-[(4-chlorobenzoyl)(methyl)amino]benzyl}-6-(dimethylamino)pyrimidin-5-yl]acetic acid], the IC50 fell in the range of 100 to 500 nM.

Regarding `CN(C)c1nc(Cc2ccc(N(C)C(=O)/C=C/c3ccccc3)cc2)nc(Cl)c1CC(=O)O` [Example 6-2], the IC50 was greater than 500 nM.

Regarding `CN(C)c1nc(Cc2ccc(N(C)C(=O)c3ccc4ccccc4n3)cc2)nc(Cl)c1CC(=O)O` [Example 6-3], the IC50 was greater than 500 nM.

Take `CN(C)c1nc(Cc2ccc(NC(=O)c3ccc4ccccc4c3)cc2)nc(N2CCOCC2)c1CC(=O)O` [Example 7-1, {4-(Dimethylamino)-6-morpholin-4-yl-2-[4-(2-naphthoylamino)benzyl]pyrimidin-5-yl}acetic acid]: the IC50 was in the range of 10 to 100 nM.

Regarding `CN(C)c1nc(Cc2ccc(NC(=O)c3ccc4ccccc4c3)cc2)nc(N(C)C)c1CC(=O)O` [Example 7-3], the IC50 lay in the range of 10 to 100 nM.

As to `CN(C)c1nc(Cc2ccc(NC(=O)c3ccc4ccccc4c3)cc2)nc(N2CCCC2)c1CC(=O)O` [Example 7-4], the IC50 fell in the range of 10 to 100 nM.

`CN(C)c1nc(Cc2ccc(NC(=O)c3ccc4ccccc4c3)cc2)nc(N2CCCCC2)c1CC(=O)O` [Example 7-5]: the IC50 was 10 to 100 nM.

For `CN(C)c1nc(Cc2ccc(NC(=O)c3ccc(Cl)c(Cl)c3)cc2)nc(N(C)C)c1CC(=O)O` [Example 7-6], the IC50 was less than 10 nM.

Turning to `CN(C)c1nc(Cc2ccc(NC(=O)/C=C/c3ccccc3)cc2)nc(N(C)C)c1CC(=O)O` [Example 7-7], the IC50 was less than 10 nM.

Take `Cc1nc(Cc2ccc(NC(=O)c3ccc4ccccc4c3)cc2)nc(N2CCCC2)c1CC(=O)O` [Example 8-1, {4-Methyl-2-[4-(2-naphthoylamino)benzyl]-6-pyrrolidin-1-ylpyrimidin-5-yl}acetic acid]: the IC50 is less than 10 nM.

On to `Cc1nc(Cc2ccc(NC(=O)c3ccc(Cl)c(Cl)c3)cc2)nc(N2CCCC2)c1CC(=O)O` [Example 8-2], for which the IC50 is less than 10 nM.

Turning to `Cc1nc(Cc2ccc(NC(=O)c3ccc4ccccc4c3)cc2)nc(N(C)C)c1CC(=O)O` [Example 8-3], the IC50 is less than 10 nM.

For the origin of these results see patent US7960393B2, “Pyrimidine derivatives useful for the treatment of diseases mediated by CRTH2” (Actimis Pharmaceuticals, Inc., priority 2002, dated 2011).
